Here are results for one compound from US11040108B2, “Amino acid- and peptide-steroid conjugates and use thereof” (BRANDEIS UNIVERSITY, priority 2016, dated 2021).

One assay deals with HeLa cells. Briefly: MTT assay, cytotoxicity against HeLa. The class given is cell-based, human. As to the method:
HeLa, Saos-2, HS-5, HepG2, T98G, and A2780 cells were purchased from American-type Culture Collection (ATCC, USA). A2780cis cell was purchased from Sigma. HeLa cells, HepG-2 cells, and T98G cells were cultured in MEM Medium supplemented with 10% v/v fetal bovine serum, 100 U/mL penicillin, and 100 μg/mL streptomycin. Saos-2 cells were cultured in McCoy's 5a Medium (for Saos-2) supplemented with 15% v/v fetal bovine serum, 100 U/mL penicillin, and 100 μg/mL streptomycin. HS-5 cells were cultured in Dulbecco's Modified Eagle's medium (DMEM) supplemented with 10% v fetal bovine serum (FBS), 100 U/mL penicillin, and 100 μg/mL streptomycin. A2780cis cells were cultured in RPMI 1640 Medium supplemented with 10% v/v fetal bovine serum, 100 U/mL penicillin, and 100 μg/mL streptomycin (cisplatin only necessary every 2-3 passages). All cells were maintained at 37° C. in a humidified atmosphere of 5% CO2.
(§1) An MTT assay was used to test the cytotoxicity. All different cell lines were seeded in 96-well plates at 1×10^5 cells/well for 24 hours followed by removal of the culture medium and subsequent addition of culture medium containing different concentrations of the precursors. At designated time (24/48/72 hours), 10 μL MTT solution (5 mg/mL) was added to each well and incubated at 37° C. for another 4 hours, and then 100 μL of SDS-HCl solution was added to stop the reduction reaction and dissolve the purple formazan. The absorbance of each well at 595 nm was measured by a multimode microplate reader. The cytotoxicity assay was performed three times and the average value of the three measurements was taken.
To confirm that assemblies of the cholesterol conjugate are able to inhibit other cancer cell lines, 1a was incubated with HeLa cells, a widely studied malignant cervical cancer cell line.

In assay [1] the test system is ER stress markers and ROS in A2780cis and HeLa cells. Nature of the assay: Western blot of ER stress markers and CLSM detection of ROS. The class given is cell-based, human. Conditions: 1a 12.5 μM, 12 hours for ROS. On the procedure:
Further exploration of the mode of action of 1a against A2780cis and HeLa cells was carried out via Western blot for the following ER stress markers: CHOP, Bip, PDI, IRE1α, Calnexin, Erol-Lα, PERK, and β-actin; or p-SAPK/JNK. Western blot was carried out via gel electrophoresis at […] for 1.5 hrs, and then transferring the protein on the gel to PVDF membranes for overnight at […] (4° C.). After that, the membrane was incubated with primary antibodies (obtained from Cell Signaling Technology) overnight at 4° C. The membrane was then incubated with secondary antibodies for 1 h at room temperature. This was followed by the reaction with ECL solutions for 10 minutes, and analysis of the results by autoradiography. Generation of ROS was detected in CLSM images via DHE emissions in exposed cells. CLSM imaging was carried out at the excitation of 543 nm and DHE emission was detected at the wavelength at 575 nm to 625 nm; or detection of anti-phospho-SRC and anti-phospho-Akt.
(A western blot detects proteins with antibodies after separation by electrophoresis.)

Assay [2] relates to F-actin in A2780cis cells. Nature of the assay: Actin staining (CLSM), A2780cis. The class given is cell-based, human. Conditions: 1a 12.5 μM, 12 hours. On the procedure:
Cells in exponential growth phase were seeded in confocal dish (3.5 cm) at 1×10^5 to 2×10^5 cells per dish. After putting the dish in incubator for 24 hours, culture medium was removed, and fresh medium containing precursor (12.5 μM 1a for A2780cis, 25 μM 1a for HeLa) was added. After 12 hours, the medium was removed and PBS was used to wash the cells for three times. After fixing by 4% paraformaldehyde for 15 minutes, 1 mL of 0.1% Triton X-100 in PBS buffer was added for 30 minutes. After washing the cells three times by PBS, 1 mL of 0.1% BSA in PBS was added for 30 minutes, and then the cells were washed by PBS for three times. 1 mL of PBS containing 5 unit of Alexa 633 was added to the cells for 1 hour. After removing the buffer and washing the cells three times by PBS, 1 mL of Hoechst (1 μg/mL) was added for 10 minutes. Then, the cells were washed three times with PBS buffer before imaging. […]

A further assay concerns A2780 cell line. Nature of the assay: Cell viability of unstimulated or selected A2780 cell line (acquired resistance). The class given is cell-based. Conditions: after five weeks treatment with gradually increased concentrations; 24, 48, 72 h. As to the method:
as §1
The activity of 1a against non-drug resistant cancer cells was assessed using the A2780 cell line.

Assay [3] deals with lipid rafts in A2780cis cells. Nature of the assay: Laurdan staining of lipid rafts, A2780cis. The class given is cell-based, human. The note with it: 1a 12.5 μM, 12 hours, 10 μM laurdan. An excerpt:
Considering that cholesterol is the basic component of lipid rafts, dynamic assemblies in cell membrane (Simons et al., “Functional Rafts in Cell Membranes,” Nature 387:569 (1997), which is hereby incorporated by reference in its entirety), laurdan, a commonly used probe for the polarity membrane (Parasassi et al., “Quantitation of Lipid Phases in Phospholipid Vesicles by the Generalized Polarization of Laurdan Fluorescence,” Biophys. J. 60:179 (1991), which is hereby incorporated by reference in its entirety), was used to examine the changes of lipid rafts upon the EISA of […]. Without treatment of 1a, the fluorescence of laurdan dispersed relatively evenly in the whole cell membrane (FIG. 8C).

As usually defined, the pIC50 is the negative decadic logarithm of the IC50, by convention in mol/L.

pIC50: −log10 of the molar value. Read-outs that look alike come from different tables or passages of the source.

As for `CC(C)CCC[C@@H](C)C1CC[C@H]2[C@@H]3CC=C4CC(OC(=O)NC(Cc5ccc(OP(=O)(O)O)cc5)C(=O)O)CC[C@]4(C)[C@H]3CC[C@]12C` (stereo partly drawn) [1a, Cholesterol-(phospho)D-Tyr], the “viability of HeLa cell treated by 1a with phosphatase or cell death signaling inhibitors” value in the assay with HeLa cells (1a 12.5 μM + ALP, L-Phe, levamisole, zVAD-fmk, PJ34 or Nec-1, 48 hours) is listed as “significantly increased the viability”. In addition, the pIC50 in the assay on HeLa cells (48 hours, read-out: IC50 against HeLa cell) is 4.72; in the assay on HeLa cells (Homo sapiens, HeLa, 48 h, read-out: IC50 against HeLa cell), 4.73; in the assay with HeLa cells (Homo sapiens, HeLa, 72 h, read-out: IC50 against HeLa), 4.80. The “viability of HeLa cells” value with HeLa cells (treated by 1a, 24 hours) is “most HeLa cells were viable”. The “ER stress markers and ROS generation” value in assay [1] was “induces cell apoptosis via ER stress and generation of ROS”. Further, in assay [2], the F-actin filaments entry is “short, ill-defined actin filament”. The “inhibition of A2780 and acquired drug resistance” value in the assay with A2780 cell line is “able to inhibit ovarian cancer cells without acquired drug resistance”. For the same compound, in assay [3], the “laurdan fluorescence in cell membrane (lipid rafts)” value is on record as “increased inhomogeneity of the fluorescence”.
